Laboratory results: US8168568B1, “Combinatorial therapy for protein signaling diseases” (The United States of America, as represented by the …, priority 2003, dated 2012)

Assays:
Type in all cases: cell-based, human
EGFR = EGFR activation time course by reverse phase protein array; details: for EGFR receptor phosphorylation: time course experiments, 100 ng/ml EGF, 10 μM PGE2, or 25 ng/ml TGF-α
Experimental: For the time course assays, colon cancer cells were plated in 24-well plates (1×10e5 cells/well), grown to 80% confluency, and serum-starved for 24 hours. […] Unstimulated cells were used as a control for basal activity. To assess TGF-inhibition, cells were pretreated with 100 ng/ml neutralizing TGF-α antibody for 1 hour before stimulation. […] To harvest cells at each timepoint, a number of cells were removed from wells by gentle scraping and suspended in 100 μL of heated SDS sample buffer (50% Tissue Protein Extraction Reagent, 48% 2× Tris-Glycine SDS Sample Buffer and 2% β-Mercaptoethanol) containing 10 μL of protease inhibitor cocktail per ml of lysate. Cells were immediately transferred to a chilled tube.
The reverse-phase protein array were as previously described (Paweletz et al). Briefly, cell lysates were subjected to one freeze/thaw cycle followed by vigorous vortexing to ensure complete liberation of proteins from the cytosol and the cell membrane. Immediately prior to spotting onto nitrocellulose slides, the samples were boiled for 5 minutes to ensure complete denaturation. Samples were spun at high speed in a microcentrifuge to remove any remaining cellular debris. Nanoliter amounts of the samples were arrayed onto nitrocellulose coated slides (Schleicher and Schuell Bioscience Inc., Keene, N.H.). Each sample was spotted nine times to form a “square” pattern consisting of three dilutions, left to right (neat, 1:2, 1:4), and three replicates of each dilution, top to bottom. Sample buffer alone was spotted as a negative control.
Slides were prepared for signal development by incubating for 10 minutes in a 10% solution of Mild Re-Blot Plus (Chemicon Intl, Temecula, Calif.) to expose antigenic sites embedded in the nitrocellulose. This was followed by two 5-minute washes in PBS and incubation in a casein-based blocking solution (Applied Biosystems, Foster City, Calif.) for at least 1 hour. Signal was developed using an automated staining system based on avidin/biotin and peroxidase methodologies (DakoCytomation, Carpinteria, Calif.). Staining is completed by a 5-minute incubation with 3,3′diaminobenzidine tetrahydrochloride (DAB) which results in a brown-colored precipitate at the antigen site. After signal development, slides were scanned on an Epson flatbed scanner at 1200 dpi. Scanned images (saved as an inverted grayscale TIFF file in Adobe Photoshop version 5.5) were analyzed with ImageQuant version 5.2 software (Molecular Dynamics, Amersham, UK). The spot intensity after background correction was proportional to the concentration of the target protein. […]
Activation is expressed as the relative intensity of stimulated cells compared with unstimulated cells on reverse phase protein microarray. […]

EGFr signaling pathway = assay: Reverse phase protein microarray of EGFr pathway nodes in EGF-stimulated colon cancer cells treated with kinase inhibitors; details: CCL-250 cells, drug treatment 30 minutes, then EGF 0.1 μg/mL; FIG. 6A
Experimental: The epidermal growth factor receptor (EGFr) signaling pathway, which is a well-characterized pathway where interdependence is already known, was investigated. […]. […] In these experiments, colon cancer cells, ATCC CCL-250, which over-express EGFr 25-75% of the time, were cultured. […] Impact of drug compounds on the pathway was evaluated by treating the cells with a drug compound or a combination of drug compounds for 30 minutes. […] Cells were then scraped from the bottom surface of the wells using a pipet tip and placed into mini-centrifuge tubes. The lysates were then vortexed, boiled for 5 minutes, and centrifuged for 20 minutes at 14,000 rpm. The lysates were arrayed using the reverse phase microarray techniques described in Paweletz et al. […] In contrast to forward-phase protein arrays that immobilize the probe, the reverse phase protein array immobilizes the whole repertoire of patient proteins (e.g. by a nitrocellulose substrate) that represent the state of individual tissue cell populations. Probes are then applied to the immobilized proteins. […] The phospho-antibodies bind to the phosphorylated, or activated, form of the protein. The other antibody binds to and is used to determine the total amount of the protein in the sample. Using the values from these two antibodies, the relative activation of that proteins may be calculated as the ratio of phosphorylated protein to total protein.

[1] = system: c-erbB1, MEK, and ERK kinases; assay: Kinase substrate array time course with and without MEK inhibitor; details: CCL250, 10 uM pretreatment 1 hour, 100 ng/ml EGF; FIG. 18B
Experimental: Separate aliquots at a series of EGF post treatment time intervals were taken and cell lysates were prepared for kinase substrate array analysis.
To determine if this technology can capture the time-course of linked kinase network events, a series of known connected phosphorylation substrates were analyzed: epidermal growth factor receptor (c-erbB1), MEK, and ERK kinases using a colon cancer cell line (CCL250) with over-expressed c-erbB1 receptor levels. […] When these events are analyzed by reverse phase array, both ERK and MEK phosphorylation show a coordinately linked kinetic profile which is expected since ERK is a direct substrate of MEK kinase (FIG. 18A). […] Phosphorylation of kinase substrates is a transient event, as phosphatases promptly dephosphorylate the substrate as the cascade continues.

[2] = system: EGF stimulated ATCC CCL-250 cancer cells; assay: 10 day colony growth bioassay; details: EGF stimulated CCL-250, FIG. 9
COX-2 protein = COX-2 protein expression by reverse phase protein array and Western blot; details: colon cancer cells, every 24 hours over 72 hours; data not shown
Experimental: Lysates that were analyzed by Western blot were evaluated for protein concentration with the BCA Protein Assay Kit (Pierce, Rockford, Ill.). Details of Western analyses are well known. Briefly, equal amounts of proteins were fractionated on 4-20% SDS-PAGE gels and transferred to PVDF membranes. After sequential incubations with primary antibodies and peroxidase-conjugated goat anti-rabbit antibodies (Tropix, Bedford, Mass.), signal was developed using an enhanced chemiluminescent staining system (Tropix, Bedford, Mass.). Protein loading was normalized for phospho- and nonphospho-proteins with the total self-protein and β-actin, respectively.
Protein loading was controlled for by expressing COX-2 protein relative to β-actin.

Molecule	EGFR receptor phosphorylation (EGFR)	shunting via the CREB node (relative expression of CREB) (EGFr signaling pathway)	further results
EGF: recombinant epidermal growth factor, EGFR ligand used as stimulus	can be induced		
COc1cc2ncnc(Nc3cccc(Cl)c3)c2cc1OC [AG1478, 4-(3-chloroanilino)-6,7-dimethoxyquinazoline]		not seen	
TGF-alpha: EGFR ligand used as stimulus	can be induced		
COc1cccc(-c2cc(=O)c3ccccc3o2)c1N [PD98059, 2-(2′-amino-3′-methoxyphenyl)-oxanaphthalen-4-one]		causes shunting through this node	activation of ERK (EGFr signaling pathway): diminishing the activation of the next node along the pathway, ERK; phosphorylation of c-erbB1, MEK and ERK after EGF [1]: only ERK phosphorylation was effected
NC(=O)c1nnn(Cc2cc(Cl)c(C(=O)c3ccc(Cl)cc3)c(Cl)c2)c1N [CAI, carboxyamidotriazole]			inhibition of cell proliferation [2]: no significant-growth inhibition
CCCCC[C@H](O)/C=C/[C@H]1[C@H](O)CC(=O)[C@@H]1C/C=C\CCCC(=O)O [PGE2, prostaglandin E2]	can be induced		expression of COX-2 protein relative to β-actin (COX-2 protein): induced increased expression of COX-2 protein; EGFR activation with or without TGF-α inhibitor pretreatment (EGFR; harvested at 5 minutes, 100 ng/ml neutralizing TGF-α antibody 1 hour, FIG. 11): requirement of TGF-α for the activation of EGFR by PGE2
